According to ChEMBL document CHEMBL1152405, “Bis-anthracenyl isoxazolyl amides have enhanced anticancer activity” (Bioorg Med Chem Lett, 2009):

Tests used:
SNB-19 = assay: Antitumor activity against human SNB19 cells after 24 hrs; assay type: functional, cell-based; conditions: SNB-19, 24 h
EKVX = assay: Growth inhibition of human EKVX cells at 10 uM after 24 hrs by MTT assay relative to control; assay type: functional; design: scale not given: the % may be the effect or the level left
NCI-H23 = assay: Growth inhibition of human NCI-H23 cells at 10 uM after 24 hrs by MTT assay relative to control; assay type: functional; design: scale not given: the % may be the effect or the level left
NCI-H322M = assay: Growth inhibition of human NCI-H322M cells at 10 uM after 24 hrs by MTT assay relative to control; assay type: functional; design: scale not given: the % may be the effect or the level left
HT-29 [1] = assay: Growth inhibition of human HT-29 cells at 10 uM after 24 hrs by MTT assay relative to control; assay type: functional; design: scale not given: the % may be the effect or the level left
KM12 = assay: Growth inhibition of human KM12 cells at 10 uM after 24 hrs by MTT assay relative to control; assay type: functional; design: scale not given: the % may be the effect or the level left
[2] = Growth inhibition of human Hs 578T cells at 10 uM after 24 hrs by MTT assay relative to control; assay type: functional; design: scale not given: the % may be the effect or the level left
NCI/ADR-RES = assay: Growth inhibition of human NCI/ADR-RES cells at 10 uM after 24 hrs by MTT assay relative to control; assay type: functional; design: scale not given: the % may be the effect or the level left
OVCAR-5 = assay: Growth inhibition of human OVCAR5 cells at 10 uM after 24 hrs by MTT assay relative to control; assay type: functional; design: scale not given: the % may be the effect or the level left
ACHN [3] = assay: Growth inhibition of human ACHN cells at 10 uM after 24 hrs by MTT assay relative to control; assay type: functional; design: scale not given: the % may be the effect or the level left
SN12C [4] = assay: Growth inhibition of human SN12C cells at 10 uM after 24 hrs by MTT assay relative to control; assay type: functional; design: scale not given: the % may be the effect or the level left
Malme-3M = assay: Growth inhibition of human MALME-3M cells at 10 uM after 24 hrs by MTT assay relative to control; assay type: functional; design: scale not given: the % may be the effect or the level left
SK-MEL-28 = assay: Growth inhibition of human SK-MEL-28 cells at 10 uM after 24 hrs by MTT assay relative to control; assay type: functional; design: scale not given: the % may be the effect or the level left
SK-MEL-5 = assay: Growth inhibition of human SK-MEL-5 cells at 10 uM after 24 hrs by MTT assay relative to control; assay type: functional; design: scale not given: the % may be the effect or the level left
SF-268 [5] = assay: Growth inhibition of human SF268 cells at 10 uM after 24 hrs by MTT assay relative to control; assay type: functional; design: scale not given: the % may be the effect or the level left
SF-539 = assay: Growth inhibition of human SF539 cells at 10 uM after 24 hrs by MTT assay relative to control; assay type: functional; design: scale not given: the % may be the effect or the level left
HL-60(TB) = assay: Growth inhibition of human HL-60(TB) cells after 24 hrs by MTT assay; assay type: functional; conditions: HL-60, 24 h
MOLT-4 = assay: Growth inhibition of human MOLT4 cells after 24 hrs by MTT assay; assay type: functional; conditions: MOLT-4, 24 h
[6] = Growth inhibition of human […] cells after 24 hrs by MTT assay; assay type: functional
SR = assay: Growth inhibition of human SR cells after 24 hrs by MTT assay; assay type: functional
HOP-92 = assay: Growth inhibition of human HOP92 cells after 24 hrs by MTT assay; assay type: functional; conditions: HOP-92, 24 h
NCI-H522 = assay: Growth inhibition of human NCI-H522 cells after 24 hrs by MTT assay; assay type: functional; conditions: NCI-H522, 24 h
HT-29 [7] = assay: Growth inhibition of human HT-29 cells after 24 hrs by MTT assay; assay type: functional; conditions: HT-29, 24 h
SF-268 [8] = assay: Growth inhibition of human SF268 cells after 24 hrs by MTT assay; assay type: functional; conditions: SF-268, 24 h
SNB-75 = assay: Growth inhibition of human SNB75 cells after 24 hrs by MTT assay; assay type: functional; conditions: SNB-75, 24 h
LOX IMVI = assay: Growth inhibition of human LOXIMVI cells after 24 hrs by MTT assay; assay type: functional
UACC-257 = assay: Growth inhibition of human UACC257 cells after 24 hrs by MTT assay; assay type: functional; conditions: UACC-257, 24 h
IGROV-1 = assay: Growth inhibition of human IGROV1 cells after 24 hrs by MTT assay; assay type: functional; conditions: IGROV-1, 24 h
OVCAR-8 = assay: Growth inhibition of human OVCAR8 cells after 24 hrs by MTT assay; assay type: functional; conditions: OVCAR-8, 24 h
ACHN [9] = assay: Growth inhibition of human ACHN cells after 24 hrs by MTT assay; assay type: functional
RXF 393 = assay: Growth inhibition of human RXF393 cells after 24 hrs by MTT assay; assay type: functional; conditions: RXF 393, 24 h
SN12C [10] = assay: Growth inhibition of human SN12C cells after 24 hrs by MTT assay; assay type: functional
MCF7 = assay: Growth inhibition of human MCF7 cells after 24 hrs by MTT assay; assay type: functional; conditions: MCF7, 24 h
[11] = Growth inhibition of human Hs 578T cells after 24 hrs by MTT assay; assay type: functional
T47D = assay: Growth inhibition of human T47D cells after 24 hrs by MTT assay; assay type: functional
[12] = read-out: LC50 (the source's name)
[13] = read-out: pLC50 (the source's name) (converted)

Cc1onc(-c2c3ccccc3c(Cl)c3ccccc23)c1C(=O)Nc1cc(C(=O)NCCCN(C)CCCNC(=O)c2cc(NC(=O)c3c(-c4c5ccccc5c(Cl)c5ccccc45)noc3C)cn2C)n(C)c1
IC50 (SNB-19): 4750 nM | Activity (EKVX): -58.5% | Activity (NCI-H23): -73.08% | Activity (NCI-H322M): -97.3% | Activity (HT-29 [1]): -91.6% | Activity (KM12): -100% | Activity [2]: -71.85% | Activity (NCI/ADR-RES): 47.82% | Activity (OVCAR-5): -85.02% | Activity (ACHN [3]): -100% | Activity (SN12C [4]): -96.46% | Activity (Malme-3M): -86.28% | Activity (SK-MEL-28): -100% | Activity (SK-MEL-5): -100% | Activity (SF-268 [5]): -100% | Activity (SF-539): -100% | TGI (HL-60(TB)): 8300 nM | GI50 (HL-60(TB); read-out: GI50): 1610 nM | CC50 (HL-60(TB); [12]): 42000 nM | GI50 (HL-60(TB); read-out: pGI50 (converted)): 1620 nM | CC50 (HL-60(TB); [13]): 41700 nM | TGI (MOLT-4): 2430 nM | GI50 (MOLT-4; read-out: GI50): 615 nM | CC50 (MOLT-4; [12]): 7960 nM | GI50 (MOLT-4; read-out: pGI50 (converted)): 617 nM | CC50 (MOLT-4; [13]): 7940 nM | TGI [6]: 3380 nM | GI50 ([6]; read-out: GI50): 1390 nM | CC50 [6, 12]: 8210 nM | GI50 ([6]; read-out: pGI50 (converted)): 1380 nM | CC50 [6, 13]: 8130 nM | LC50 (SR): 100000 nM | TGI (SR): 2030 nM | GI50 (SR; read-out: GI50): 394 nM | GI50 (SR; read-out: pGI50 (converted)): 398 nM | CC50 (SR; [13]): > 100000 nM | TGI (HOP-92): 2480 nM | GI50 (HOP-92; read-out: GI50): 1220 nM | CC50 (HOP-92; [12]): 5030 nM | GI50 (HOP-92; read-out: pGI50 (converted)): 1230 nM | CC50 (HOP-92; [13]): 5010 nM | TGI (NCI-H522): 3510 nM | GI50 (NCI-H522; read-out: GI50): 1590 nM | GI50 (NCI-H522; read-out: pGI50 (converted)): 1580 nM | TGI (HT-29 [7]): 2470 nM | GI50 (HT-29 [7]; read-out: GI50): 1200 nM | GI50 (HT-29 [7]; read-out: pGI50 (converted)): 1200 nM | TGI (SF-268 [8]): 2900 nM | GI50 (SF-268 [8]; read-out: GI50): 1390 nM | GI50 (SF-268 [8]; read-out: pGI50 (converted)): 1380 nM | TGI (SNB-75): 2710 nM | GI50 (SNB-75; read-out: GI50): 1070 nM | CC50 (SNB-75; [12]): 6840 nM | GI50 (SNB-75; read-out: pGI50 (converted)): 1070 nM | CC50 (SNB-75; [13]): 6920 nM | TGI (LOX IMVI): 2960 nM | GI50 (LOX IMVI; read-out: GI50): 1380 nM | GI50 (LOX IMVI; read-out: pGI50 (converted)): 1380 nM | TGI (UACC-257): 4630 nM | GI50 (UACC-257; read-out: GI50): 2150 nM | GI50 (UACC-257; read-out: pGI50 (converted)): 2140 nM | TGI (IGROV-1): 3260 nM | GI50 (IGROV-1; read-out: GI50): 1430 nM | CC50 (IGROV-1; [12]): 7420 nM | GI50 (IGROV-1; read-out: pGI50 (converted)): 1450 nM | CC50 (IGROV-1; [13]): 7410 nM | TGI (OVCAR-8): 4090 nM | GI50 (OVCAR-8; read-out: GI50): 1970 nM | GI50 (OVCAR-8; read-out: pGI50 (converted)): 2000 nM | TGI (ACHN [9]): 3040 nM | GI50 (ACHN [9]; read-out: GI50): 1630 nM | GI50 (ACHN [9]; read-out: pGI50 (converted)): 1620 nM | TGI (RXF 393): 3300 nM | GI50 (RXF 393; read-out: GI50): 1630 nM | GI50 (RXF 393; read-out: pGI50 (converted)): 1620 nM | TGI (SN12C [10]): 3140 nM | GI50 (SN12C [10]; read-out: GI50): 1650 nM | GI50 (SN12C [10]; read-out: pGI50 (converted)): 1660 nM | TGI (MCF7): 2400 nM | GI50 (MCF7; read-out: GI50): 1180 nM | CC50 (MCF7; [12]): 4900 nM | GI50 (MCF7; read-out: pGI50 (converted)): 1170 nM | CC50 (MCF7; [13]): 4900 nM | TGI [11]: 2940 nM | GI50 ([11]; read-out: GI50): 1150 nM | GI50 ([11]; read-out: pGI50 (converted)): 1150 nM | TGI (T47D): 5080 nM | GI50 (T47D; read-out: GI50): 1690 nM | CC50 (T47D; [12]): 24500 nM | GI50 (T47D; read-out: pGI50 (converted)): 1700 nM | CC50 (T47D; [13]): 24500 nM
